By CLint scaled is commonly meant the capacity of the preparation to metabolise the compound, expressed as a volume cleared per time. High values mean rapid turnover, low ones slow turnover. One may read the half-life as the time in which the quantity being followed falls by half. Low readings indicate rapid decline, high ones slow decline.

A short description of data set [1]: Microsomal metabolic stability, dog. The settings on record: dog liver microsomes. The class given is in vitro ADME. As to the method:
The liver microsomal incubation system comprised human, dog, or rat liver microsomal protein (0.75 mg/mL), nicotinamide adenine dinucleotide phosphate (NADPH) generation system, potassium phosphate buffer (0.1 M, pH 7.4), substrate, and inhibitor. The assay was conducted by first preparing a potassium phosphate buffer. Compounds and liver microsomes were then diluted and pre-incubated at 37 °C before initiating the reaction with NADPH. Aliquots were quenched with acetonitrile containing internal standard at specified time points. After sample processing (shaking and centrifugation), the supernatants were analyzed by LC-MS/MS to determine metabolic stability.

For data set [2], the system named is rat transient Middle Cerebral Artery Occlusion (tMCAO) model. In words: Rat tMCAO model, acute phase (TTC, mNSS, peri-infarct cortex). The class given is in vivo. The procedure: Cpd.51 was dissolved in solvent (10% DMSO, 10% Solutol HS-15 and 80% saline). It was injected (i.v.) at dose of 3 mg/kg or 5 mg/kg in a 0.5 mL volume. The Sham group and Vehicle group were treated simultaneously with an equal volume of solvent. In the experiment to explore the treatment time window, we merely administered the drug to the rats at different time points, while all other procedures remained unchanged. In the short-term toxicity study, 10 mg/kg Cpd.51 and Oma were administered via tail vein injection at 0.5 mL daily for 7 consecutive days.
All rats were fasted for more than 12 h before the operation began. Transient focal cerebral ischemia was induced by middle cerebral artery occlusion (MCAO) in rat, as previously described, [29]. In short, after anesthetizing the rats with 2.5% tribromoethanol, the right common carotid artery (CCA), external carotid artery (ECA), and internal carotid artery (ICA) were isolated. […] The body temperature of the animals was maintained between 36.5 °C and 37.5 °C.
After the behavioral assessments, rats were euthanized and the brain harvested. Brain tissue was cut into five coronal sections (2 mm thick) and incubated in 2% TTC (298-96-4, TCI, Japan) for 20 min at 37 °C. The volume of ischemic brain injury was measured using ImageJ (US National Institutes of […], Bethesda, MD, USA).
(§1) To assess the degree of neurological impairment, we conducted modified Neurological Severity Score (mNSS) according to previous experience. The investigator was blinded to the grouping situation during the whole experiment.
The anesthetized-animals were transcardially perfused with 0.9% saline in vivo. The ischemic penumbral tissue was isolated from rats and grinded in PBS. Similarly, in vitro, the cells were digested with pancreatic enzymes and placed in PBS. Next, repeatedly freeze and thaw three times in liquid nitrogen and 37 °C water. Sample supernatant was taken for testing according to the MDA or GSH assay kit instructions (S0131M or S0053, Beyotime, China).
Brain tissue was fixed with 4% paraformaldehyde and immersed in 15% sucrose and 30% sucrose at 4 °C overnight. Coronal brain sections (thickness = 20 μm) were incubated with blocking solution for 1.5 h at room temperature followed by incubation with primary antibodies: anti-Nrf2 (1:200, CST), anti-DHRS3 (1:300, Proteintech), anti-NeuN (1:500, Servicebio), anti-GFAP (1:500, Abcam) and anti-Iba-1 (1:500, Abcam). Subsequent immunostaining assays were performed as previously described of cells.

Another data set relates to tMCAO rats. As to the kind of experiment: Long-term recovery after tMCAO (survival, body weight, behaviour). The class given is in vivo, rat. The note with it: 5 mg/kg tail vein injection for 7 d. The procedure: as §1
On postoperative day 3 two wooden boards of identical size were joined at a 30° angle, with a narrow gap retained at the junction. The rat was positioned facing the apex of the angle. When it advanced into the deeper part of the angle, bilateral whisker contact with the boards triggered a characteristic rearing response, followed by a turn to face the opposite direction. Each rat underwent 15 trials, and the number of right turns was recorded. The higher the right-turn ratio, the more severe the injury.
Rats were placed on a horizontal, stainless steel wire grid. The grid was then smoothly rotated 180 degrees to an inverted position and held stationary at a height of 0.8 m. A stopwatch was started immediately upon inversion to measure the latency to fall. The test was terminated if the animal remained on the grid for 60 s, at which point it was gently returned to its home cage, and a score of 60 s was recorded.
The Y-maze apparatus consisted of three symmetrically arranged enclosed arms (typically labeled Arms A, B, and C), each positioned 120° apart. At the start of each trial, the subject was placed in Arm A and allowed to move freely through the maze for 8 min. Spatial working memory was evaluated by calculating the spontaneous alternation rate, using the following formula:
Following a 2 h acclimation period, the rats were within an open field cubic box (100 × 100 × 40 cm^3) and allowed 5 min of unrestricted movement. The travel distance and the time spent in the central area were recorded.
The spatial learning and memory of rats were assessed using the Morris water maze (MWM) from post-operative days 23 to 26. Over four consecutive days, animals underwent training trials in which they were required to locate a submerged escape platform within 60 s. Each rat was gently placed into the water facing the pool wall. If the rat found the platform and remained on it for 10 s, the escape latency was recorded. If the platform was not found within 60 s, the rat was guided onto it and allowed to stay for 10 s, and the latency was recorded as 60 s. Following the training phase, the platform was removed, and a visual spatial memory test lasting for 60 s was conducted to assess the retention of memory. The number of platform-location crossings and the time spent in the target quadrant were recorded and analyzed.

The test system of data set [3] is SH-SY5Y cells and primary cortical neuron cells. As to the kind of experiment: Mitochondrial function in the OGD/R model (JC-1, Calcein-AM, DCFH-DA, ATP). In kind it is cell-based. As to the method:
Experiment two: mitochondrial ATP levels were assayed using ATP assay kit (S0027, Beyotime, China) according to the manufacturer's protocols. The cells were cultured by placing them in six-well plates as described in the "Cell culture and drug administration in vitro" method. Subsequently, 200 uL of lysate was added into the hole and supernatants were collected (4 °C, 12000 g, 5 min). 100 uL supernatants cultured with 100 µL probe of ATP, and the RLU was measured by a luminometer.
Assay of ROS generation production: cellular ROS were examined using an ROS Assay Kit (S0033S, Beyotime, China). Cells were incubated with DCFH-DA for 20 min at 37 °C in the dark, and then washed three times with PBS. The fluorescence intensity was measured by Laser Scanning Confocal Microscope (CLSM; ZEISS LSM 800, Germany).
Mitochondrial membrane potential (MMP) and MPTP assessment: MMP changes were measured by a mitochondrial membrane potential assay kit with JC-1 (C2003S, Beyotime, China) according to the manufacturer's instructions. Higher ratios of red to green fluorescence were correlated with higher mitochondrial membrane polarization. In addition, MPTP opening was assessed by Calcein-AM assays (Y237214-1mg, Beyotime, China). […] For detailed instructions, please refer to the manual.

Setting [4] is: 5 mg/kg i.v. at 4 h post-ischemia, read at 24 h.

The structures appear in SMILES notation.

Regarding `CC1(C)CCC2(C(=O)NO)CCC3(C)C(C(=O)C=C4C5(C)C=C(C#N)C(=O)C(C)(C)C5CCC43C)C2C1` (stereo not drawn) [Cpd.51], in data set [1], the “Remainig (%, t = 60 min)” value stood at 32.9%. Besides, in data set [1] (dog, pH 7.4), the CLint scaled worked out at 51 mL/min/kg and the half-life was found to be 39.2 min. For the same compound, the “area of infarction (TTC)” value in data set [2] (3 mg/kg and 5 mg/kg i.v. at the same time as ischemia) is on record as “significantly reduced the area of infarction”. Further, in data set [2] (setting [4]), the “infarction volume, delayed administration” value is on record as “significantly diminished infarction volume” and the “mNSS scores, delayed administration” value is reported as “improved mNSS scores”. Besides, the “Nrf2, HO-1 and NQO1 protein levels in peri-infarct cortex” value in data set [2] (24 h post tMCAO, immunoblotting) is “significantly upregulated”. Further, the “cell type of Nrf2 enrichment (co-staining NeuN, GFAP, Iba-1)” value in data set [2] (peri-infarct region, 24 h after ischemia) is given as “Nrf2 was selectively enriched in neurons”. The mNSS scores entry in data set [2] (tMCAO rats, i.v.) is “significantly inhibited the increase in mNSS scores”. Also, the “GSH and MDA in cortical tissues” value in data set [2] (tMCAO rats, peri-infarct cortex) was “restoring GSH concentrations and suppressing MDA accumulation”. Also, in the data set on tMCAO rats, the “Morris water maze, spatial learning and memory” value is listed as “only a modest capacity to improve these cognitive functions”; the “body weight and mNSS scores, long-term” value was “significantly improved body weight and mNSS scores”; the “mortality after tMCAO” value is recorded as “reduced mortality”. Besides, the “corner, inverted screen, Y maze and open field tests” value in the data set with tMCAO rats (vs model group) was “exhibited improvements in neurological deficits, motor abilities, and spatial working and reference memory”. In data set [3], the “mitochondrial membrane potential (JC-1)” value is on record as “enhanced mitochondrial membrane potential” and the “mitochondrial permeability (MPTP, Calcein AM)” value was “reduced mitochondrial permeability”. For the same compound, in data set [3] (SH-SY5Y cells), the ATP production entry was “increased ATP production” and the “reactive oxygen species production (DCFH-DA)” value is “decreased reactive oxygen species production”.
